The test system of assay [1] is BT-549. Put plainly: Synergistic antiproliferative activity against human BT-549 cells assessed as synergistic score in presence of Olaparib. Type of assay: functional.
Assay [2] relates to MDA-MB-231. Nature of the assay: Cytotoxicity against human MDA-MB-231 cells assessed as inhibition of cell growth incubated for 72 hrs by MTT assay. As to conditions: MDA-MB-231, 72 h. The format is functional, cell-based. Background: Tetrazolium dyes change colour on reduction, which living cells bring about.
The test system of assay [3] is BT-549. Put plainly: Induction of DNA damage in human BT-549 cells assessed as increase in gamma-H2AX localization in nucleus at 0.125 uM incubated for 48 hrs by fluorescence confocal microscopic analysis. Type of assay: functional, cell-based.
Assay [4] has as its system MCF7. Nature of the assay: Cytotoxicity against human MCF7 cells assessed as inhibition of cell growth incubated for 72 hrs by MTT assay. The format is functional, cell-based. As to conditions: MCF7, 72 h.
Assay [5] deals with BT-549. Nature of the assay: Cytotoxicity against human BT-549 cells assessed as inhibition of cell growth incubated for 72 hrs by MTT assay. Type of assay: functional, cell-based. The following applies: BT-549, 72 h.
The target in assay [6] is Poly [ADP-ribose] polymerase 1 (Homo sapiens, UniProt P09874). Put plainly: Inhibition of PARP-1 (unknown origin) assessed as fold change in inhibition using Femto-ECL as substrate preincubated for 2.7 hrs followed by substrate addition by chemiluminescence assay.
Sequence of Poly [ADP-ribose] polymerase 1 (P09874 whole entry): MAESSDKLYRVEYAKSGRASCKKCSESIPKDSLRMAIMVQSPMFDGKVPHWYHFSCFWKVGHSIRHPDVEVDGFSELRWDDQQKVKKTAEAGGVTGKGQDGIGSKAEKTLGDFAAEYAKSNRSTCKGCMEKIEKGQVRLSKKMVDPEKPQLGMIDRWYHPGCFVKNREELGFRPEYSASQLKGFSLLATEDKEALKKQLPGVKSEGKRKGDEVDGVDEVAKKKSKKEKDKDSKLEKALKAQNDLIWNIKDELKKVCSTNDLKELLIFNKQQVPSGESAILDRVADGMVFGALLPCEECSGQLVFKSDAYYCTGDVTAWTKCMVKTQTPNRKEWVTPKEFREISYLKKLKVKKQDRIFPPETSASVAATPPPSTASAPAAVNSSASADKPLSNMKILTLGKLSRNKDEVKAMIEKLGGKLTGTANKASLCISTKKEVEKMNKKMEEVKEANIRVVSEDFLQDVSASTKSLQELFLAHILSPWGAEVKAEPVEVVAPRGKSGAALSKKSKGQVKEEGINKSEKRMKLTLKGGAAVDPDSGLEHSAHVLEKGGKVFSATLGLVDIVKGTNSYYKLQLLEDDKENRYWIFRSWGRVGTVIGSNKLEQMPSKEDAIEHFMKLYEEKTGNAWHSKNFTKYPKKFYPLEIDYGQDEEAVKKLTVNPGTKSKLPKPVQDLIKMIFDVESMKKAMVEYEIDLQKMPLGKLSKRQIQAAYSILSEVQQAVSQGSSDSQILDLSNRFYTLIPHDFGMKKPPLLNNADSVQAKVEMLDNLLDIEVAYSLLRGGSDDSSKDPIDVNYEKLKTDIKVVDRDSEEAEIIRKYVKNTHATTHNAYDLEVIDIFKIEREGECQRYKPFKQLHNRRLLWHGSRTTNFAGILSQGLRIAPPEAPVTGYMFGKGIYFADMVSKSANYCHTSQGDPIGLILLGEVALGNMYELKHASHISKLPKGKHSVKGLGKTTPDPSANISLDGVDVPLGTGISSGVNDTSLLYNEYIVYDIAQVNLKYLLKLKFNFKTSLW

The structures appear in SMILES notation. Activity calls are given as the source filed them. No cut-off for these calls is given here.

This passage reports Activity, IC50 and fold change (FC) results from ChEMBL document CHEMBL5528008, “Design and synthesis of the first PARP-1 and proteasome dual inhibitors to treat breast cancer” (Eur J Med Chem, 2024).

Consider `CC(C)C[C@H](NC(=O)CNC(=O)c1cc(Cl)ccc1Cl)B(O)O` [IXAZOMIB], for which the Activity in assay [1] worked out at 12.191. Moreover, the results for the IC50 in assay [2], in assay [4] and in assay [5] were 42.6 nM, 135 nM and 227 nM, respectively. In assay [3], the result was inactive.
With `CC(C)C[C@H](NC(=O)[C@H](CC(C)C)NC(=O)c1cc(Cc2nn(C)c(=O)c3ccccc23)ccc1F)B1O[C@@H]2C[C@@H]3C[C@@H](C3(C)C)[C@]2(C)O1`, the fold change (FC) in assay [6] is 100.

By IC50 is commonly meant the concentration that inhibits the measured activity by half.
